# Reference: ChEMBL document CHEMBL5149996, “Structure-Based Optimization and Discovery of M3258, a Specific Inhibitor of the Immunoproteasome Subunit LMP7 (β5i)” (J Med Chem, 2021)
# Calls of active or inactive are those of the source. The rule behind the calls is not given here.
# Key:
# [1] = Clearance in iv dosed mouse; assay type: ADME, organism-based; settings: in vivo
# [2] = target: T1, Proteasome subunit beta type-8 (Homo sapiens, UniProt P28062); test: Inhibition of 20S immunoproteasome beta-5i subunit in human PBMC using Ac-ANW-luciferin substrate preincubated for 2 hrs followed by substrate addition and measured after 30 mins by luminometric analysis; assay type: cell-based
# T1 sequence (P28062 whole entry): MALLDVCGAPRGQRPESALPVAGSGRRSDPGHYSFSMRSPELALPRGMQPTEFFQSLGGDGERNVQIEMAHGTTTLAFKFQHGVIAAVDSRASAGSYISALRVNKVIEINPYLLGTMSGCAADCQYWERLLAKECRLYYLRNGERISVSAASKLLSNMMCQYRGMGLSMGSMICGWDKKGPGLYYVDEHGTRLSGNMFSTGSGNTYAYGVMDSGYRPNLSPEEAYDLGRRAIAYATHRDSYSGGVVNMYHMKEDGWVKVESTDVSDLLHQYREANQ
# [3] = target: 5-hydroxytryptamine receptor 2A (Homo sapiens) (UniProt P28223); test: Displacement of [125I](+/-)DOI from human recombinant 5HT2A receptor at 10 uM incubated for 60 mins by radiometric scintillation counting analysis
# Homo sapiens = organism: Homo sapiens; test: Selectivity ratio of IC50 for inhibition of 20S proteasome beta5 subunit in human A549 cells to IC50 for inhibition of 20S immunoproteasome beta-5i subunit in human PBMC; assay type: cell-based
# [4] = Cytotoxicity against Wistar Han rat hepatocytes assessed as depletion of ATP content incubated for 48 to 72 hrs by CellTiter-Glo luminescent assay; assay type: toxicity, cell-based, Hepatocyte
# [5] = test system: 20S immunoproteasome beta-5i subunit; test: Selectivity ratio of IC50 for cytotoxicity against human primary hepatocytes to IC50 for inhibition of 20S immunoproteasome beta-5i subunit in human PBMC; assay type: toxicity; settings: read-out: Ratio IC50
# U-266 [6] = test: In vivo inhibition of LMP7 activity in tumor lysates of H2d Rag2 mouse xenografted with human U266B1 cells at 0.3 mg/kg, po administered as single dose using (Ac-ANW)2R110 as substrate measured after 1 to 6 hrs by fluorescence intensity assay; assay type: functional, organism-based; settings: Neoplasm, time 1-6 hrs
# [7] = target: T2, Proteasome subunit beta type-7 (Homo sapiens, UniProt Q99436); test: Inhibition of human 20S proteasome beta2 subunit using Ac-RLR-AMC as substrate preincubated for 2 hrs followed by substrate addition and measured after 1 hr by fluorescence intensity assay
# T2 sequence (Q99436 whole entry): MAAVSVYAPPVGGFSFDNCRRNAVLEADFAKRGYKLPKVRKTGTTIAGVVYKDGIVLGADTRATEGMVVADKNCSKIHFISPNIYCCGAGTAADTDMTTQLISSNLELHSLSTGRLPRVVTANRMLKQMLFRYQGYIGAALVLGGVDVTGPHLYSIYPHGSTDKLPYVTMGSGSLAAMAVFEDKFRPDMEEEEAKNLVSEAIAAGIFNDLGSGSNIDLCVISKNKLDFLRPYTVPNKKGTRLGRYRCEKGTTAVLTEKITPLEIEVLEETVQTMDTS
# [8] = target: T3, Proteasome Macropain subunit MB1 (Homo sapiens, UniProt P28074); test: Inhibition of human 20S proteasome beta5 subunit using Suc-LLVY-AMC as substrate preincubated for 2 hrs followed by substrate addition and measured after 1 hr by fluorescence intensity assay
# T3 sequence (P28074 whole entry): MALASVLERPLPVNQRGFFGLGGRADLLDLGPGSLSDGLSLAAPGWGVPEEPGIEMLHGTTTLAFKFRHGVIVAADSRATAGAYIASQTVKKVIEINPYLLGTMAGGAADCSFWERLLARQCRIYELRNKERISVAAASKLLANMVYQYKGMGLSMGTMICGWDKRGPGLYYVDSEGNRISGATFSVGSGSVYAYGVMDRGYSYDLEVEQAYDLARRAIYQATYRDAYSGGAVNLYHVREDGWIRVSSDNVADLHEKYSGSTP
# [9] = target: T3, Proteasome Macropain subunit MB1; test: Inhibition of 20S proteasome beta5 subunit in human A549 cells using Suc-LLVY-luciferin substrate preincubated for 2 hrs followed by substrate addition and measured after 30 mins by luminometric analysis; assay type: cell-based
# [10] = Toxicity in H2d Rag2 mouse xenografted with human U266B1 cells assessed as change in body weight at 0.3 to 1 mg/kg, po administered once daily and measured for 21 days; assay type: organism-based, U-266; settings: in vivo, 504 h, dose 0.3-1 mg/kg, time 21 day
# [11] = target: T4, Proteasome subunit beta type-6 (Homo sapiens, UniProt P28072); test: Inhibition of human 20S […] beta1 subunit using Ac-nLPnLD-AMC as substrate preincubated for 2 hrs followed by substrate addition and measured after 1 hr by fluorescence intensity assay
# T4 sequence (P28072 whole entry): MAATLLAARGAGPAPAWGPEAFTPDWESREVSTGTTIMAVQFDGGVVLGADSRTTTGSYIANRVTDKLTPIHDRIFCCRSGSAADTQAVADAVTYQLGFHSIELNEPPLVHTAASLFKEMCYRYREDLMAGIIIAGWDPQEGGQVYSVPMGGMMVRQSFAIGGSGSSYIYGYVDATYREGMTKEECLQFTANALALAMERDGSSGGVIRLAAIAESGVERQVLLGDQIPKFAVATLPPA
# [12] = target: T1, Proteasome subunit beta type-8; test: Inhibition of human 20S immunoproteasome beta-5i subunit using Suc-LLVY-AMC as substrate preincubated for 2 hrs followed by substrate addition and measured after 1 hr by fluorescence intensity assay
# [13] = Volume of distribution at steady state in iv dosed mouse; assay type: ADME, organism-based; settings: in vivo, read-out: Vdss
# U-266 [14] = test: Antitumor activity against human U266B1 cells xenografted in H2d Rag2 mouse assessed as reduction in tumor volume at 1 mg/kg, po administered once daily and measured for 21 days; assay type: functional, organism-based; settings: time 21.0 day
# [15] = target: T5, Proteasome subunit beta type-10 (Homo sapiens, UniProt P40306); test: Inhibition of human 20S immunoproteasome beta-2i subunit using Ac-RLR-AMC as substrate preincubated for 2 hrs followed by substrate addition and measured after 1 hr by fluorescence intensity assay
# T5 sequence (P40306 whole entry): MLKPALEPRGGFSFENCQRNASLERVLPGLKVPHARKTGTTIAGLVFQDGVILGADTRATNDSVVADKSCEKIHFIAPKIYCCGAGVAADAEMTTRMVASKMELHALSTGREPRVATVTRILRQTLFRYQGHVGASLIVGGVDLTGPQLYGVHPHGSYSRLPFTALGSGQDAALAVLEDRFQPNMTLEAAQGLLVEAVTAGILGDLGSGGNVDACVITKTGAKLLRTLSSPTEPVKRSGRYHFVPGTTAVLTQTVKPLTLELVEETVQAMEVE
# [16] = Clearance in human hepatocytes measured per million of cells; assay type: ADME, cell-based, Hepatocyte; settings: read-out: CLH
# [17] = Kinetic solubility of the compound; assay type: physicochemical; settings: read-out: Kinetic_solubility
# 5-hydroxytryptamine receptor 2A (Homo sapiens), sequence (P28223 whole entry): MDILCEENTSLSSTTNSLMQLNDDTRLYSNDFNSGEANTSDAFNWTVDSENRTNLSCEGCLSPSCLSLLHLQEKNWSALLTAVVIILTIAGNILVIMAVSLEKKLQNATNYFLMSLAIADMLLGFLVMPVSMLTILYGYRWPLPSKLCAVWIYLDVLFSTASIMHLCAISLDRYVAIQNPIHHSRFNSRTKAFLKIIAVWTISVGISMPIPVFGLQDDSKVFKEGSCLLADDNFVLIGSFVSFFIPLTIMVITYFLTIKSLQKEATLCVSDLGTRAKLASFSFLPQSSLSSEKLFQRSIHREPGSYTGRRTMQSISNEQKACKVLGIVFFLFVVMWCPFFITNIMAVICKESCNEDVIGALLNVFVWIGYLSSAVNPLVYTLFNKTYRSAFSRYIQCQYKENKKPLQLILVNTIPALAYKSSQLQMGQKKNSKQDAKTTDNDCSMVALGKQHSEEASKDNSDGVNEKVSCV
smiles,measurement,setting,value
O=C(N[C@@H](Cc1coc2ccccc12)B(O)O)[C@@H]1C[C@H]2CC[C@@H]1O2,clearance,[1],3.17 mL/min/kg
same,IC50,[2],3.4 nM
same,inhibition,[3],Active
same,Ratio IC50,Homo sapiens,305
same,IC50,[4],64000 nM
same,selectivity ratio,[5],10000
same,inhibition,U-266 [6],Active
same,IC50,[7],> 30000 nM
same,IC50,[8],2500 nM
same,IC50,[9],1040 nM
same,Activity,[10],Non-Toxic
same,IC50,[11],> 30000 nM
same,IC50,[12],3.6 nM
same,Vd,[13],0.47 L/kg
same,Activity,U-266 [14],Active
same,IC50,[15],> 30000 nM
same,hepatocyte CLint,[16],6.2 µL/min/1e6 cells
same,solubility kinetic,[17],> 200 µM
